What was measured:
[1] = system: adults with idiopathic or diabetic gastroparesis; assay: ANMS GCSI-DD total and subscale scores, protocol-specified scoring method, Phase 2a; type: in vivo, human; set-up: key to ANMS GCSI-DD total score, Day 14/EOT, mean / ANMS GCSI-DD nausea/vomiting subscale score, Day 14/EOT, mean / ANMS GCSI-DD postprandial fullness/early satiety subscale score, Day 14/EOT, mean / ANMS GCSI-DD bloating subscale score, Day 14/EOT, mean: symptoms rated 0 (none) to 4 (very severe)
Method: Subjects were Evaluated as Follows: • Days −28 to −11: Screening procedures were performed. The ANMS GCSI-DD questionnaire was completed daily for at least 14 days prior to randomization (Day 1); • Days −10 to −3: The ANMS GCSI-DD questionnaire was completed daily. A GEBT was performed on a single day within this window, with breath samples obtained twice prior to consumption of a standardized, carbon-13 (^13C)-enriched meal and then at 45, 90, 120, 150, 180, and 240 minutes after meal consumption after an 8-hour fast. […] On Day 14 (±2 days), the PAGI-SYM and Clinical Grading Assessment questionnaires were completed prior to the final dose of study drug. • A GEBT was administered 30 minutes after study drug administration on Day 14 (±2 days). Breath samples were obtained twice prior to ^13C-enriched meal consumption and then at 45, 90, 120, 150, 180, and 240 minutes after meal consumption after an 8-hour fast. If a subject withdrew from the study prior to the Day 14 (±2 days) GEBT, attempts should have been made to perform a GEBT on the last day of study drug administration. Clinical Grading Assessment Scales were also performed.
The ANMS GCSI-DD covers 5 core relevant symptoms of gastroparesis: nausea, early satiety, postprandial fullness, upper abdominal pain, and vomiting. Bloating is included as an exploratory symptom. Symptoms are rated on a severity numeric response scale from 0 (none) to 4 (very severe). Vomiting is captured on a frequency response scale and scored as follows: 0 for no episodes, 1 for 1 episode, 2 for 2 episodes, 3 for 3 episodes, and 4 for 4 or more episodes. Subjects were asked to recall symptoms over the previous 24 hours and complete the ANMS GCSI-DD patient-reported symptom questionnaire for at least 14 days prior to randomization, on the day of randomization, and daily from Days 1 to 14 (±2 days).

prolactin = assay: Prolactin concentration (pharmacodynamic evaluation), Phase 2a; type: in vivo, human; details: Safety Population
From the text: Table 14 summarizes prolactin concentration and change from baseline by scheduled time point and treatment for the Safety Population.

[2] = system: adults with idiopathic or diabetic gastroparesis; assay: 12-lead ECG QTcF safety assessment, Phase 2a; type: in vivo, human
Method: Safety was evaluated through assessments of Aes, vital signs, physical examinations, clinical laboratory evaluations (including prolactin), and ECG findings.

[3] = system: heart rate in healthy subjects; assay: Thorough QT study, placebo-corrected change-from-baseline HR (ΔΔHR); type: in vivo, human
[4] = Thorough QT study, plasma pharmacokinetics; type: in vivo, human; details: healthy subjects
From the text: Blood samples for PK determination were drawn at the same time points immediately after the ECG extractions.

healthy subjects = details: in vivo
Method: Categorical T-wave morphology analysis and measurement of PR and QRS intervals were fully performed manually using a semi-automated process in 3 of the 10 ECG replicates at each time point.
Treatment A: 30 mg CIN-102 [representing approximate steady-state therapeutic exposures in subject population]; Treatment B: 100 mg CIN-102 [representing potential steady-state supratherapeutic exposures in subjects]; Treatment C: 400 mg open-label moxifloxacin; Treatment D: CIN-102 placebo. A subject can appear in more than 1 category. The denominator (Total) is defined as the number of subjects or time points in the QT/QTc population for each treatment.

[5] = 10 mg dose, healthy subjects

## [2H]c1c([2H])c([2H])c2c([nH]c(=O)n2CCCN2CCC(n3c(=O)[nH]c4cc(Cl)ccc43)CC2)c1[2H] [Deudomperidone, 1-{3-[4-(5-chloro-2-oxo-2,3-dihydro-1H-1,3-benzodiazol-1-yl)piperidin-1yl]propyl}-2,3-dihydro(4,5,6,7-D4)-1H-1,3-benzodiazol-2-one]
[1]; 5 mg BID, Cohort 3, ITT
  ANMS GCSI-DD bloating subscale score, Day 14/EOT, mean: 2.33
  ANMS GCSI-DD bloating subscale score, change from baseline to Day 14/EOT: −0.37
  ANMS GCSI-DD bloating subscale score, percent change from baseline to Day 14/EOT: −16.16%
  ANMS GCSI-DD nausea/vomiting subscale score, Day 14/EOT, mean: 1.00
  ANMS GCSI-DD nausea/vomiting subscale score, change from baseline to Day 14/EOT: −0.52
  ANMS GCSI-DD nausea/vomiting subscale score, percent change from baseline to Day 14/EOT: −41.08%
  ANMS GCSI-DD postprandial fullness/early satiety subscale score, Day 14/EOT, mean: 2.00
  ANMS GCSI-DD postprandial fullness/early satiety subscale score, change from baseline to Day 14/EOT: −0.78
  ANMS GCSI-DD postprandial fullness/early satiety subscale score, percent change from baseline to Day 14/EOT: −29.47%
  ANMS GCSI-DD total score, Day 14/EOT, mean: 1.78
  ANMS GCSI-DD total score, change from baseline to Day 14/EOT: −0.56
  ANMS GCSI-DD total score, percent change from baseline to Day 14/EOT: −26.84%
[1]; 10 mg BID, Cohort 1, ITT
  ANMS GCSI-DD bloating subscale score, Day 14/EOT, mean: 1.76
  ANMS GCSI-DD bloating subscale score, change from baseline to Day 14/EOT: −1.08
  ANMS GCSI-DD bloating subscale score, percent change from baseline to Day 14/EOT: −41.78%
  ANMS GCSI-DD nausea/vomiting subscale score, Day 14/EOT, mean: 0.74
  ANMS GCSI-DD nausea/vomiting subscale score, change from baseline to Day 14/EOT: −0.89
  ANMS GCSI-DD nausea/vomiting subscale score, percent change from baseline to Day 14/EOT: −52.41%
  ANMS GCSI-DD postprandial fullness/early satiety subscale score, Day 14/EOT, mean: 1.71
  ANMS GCSI-DD postprandial fullness/early satiety subscale score, change from baseline to Day 14/EOT: −1.16
  ANMS GCSI-DD postprandial fullness/early satiety subscale score, percent change from baseline to Day 14/EOT: −41.38%
  ANMS GCSI-DD total score, Day 14/EOT, mean: 1.40
  ANMS GCSI-DD total score, change from baseline to Day 14/EOT: −1.04
  ANMS GCSI-DD total score, percent change from baseline to Day 14/EOT: −43.64%
[1]; 20 mg QD, Cohort 2, ITT
  ANMS GCSI-DD bloating subscale score, Day 14/EOT, mean: 1.47
  ANMS GCSI-DD bloating subscale score, change from baseline to Day 14/EOT: −1.40
  ANMS GCSI-DD bloating subscale score, percent change from baseline to Day 14/EOT: −51.82%
  ANMS GCSI-DD nausea/vomiting subscale score, Day 14/EOT, mean: 0.40
  ANMS GCSI-DD nausea/vomiting subscale score, change from baseline to Day 14/EOT: −1.20
  ANMS GCSI-DD nausea/vomiting subscale score, percent change from baseline to Day 14/EOT: −67.94%
  ANMS GCSI-DD postprandial fullness/early satiety subscale score, Day 14/EOT, mean: 1.37
  ANMS GCSI-DD postprandial fullness/early satiety subscale score, change from baseline to Day 14/EOT: −1.38
  ANMS GCSI-DD postprandial fullness/early satiety subscale score, percent change from baseline to Day 14/EOT: −50.14%
  ANMS GCSI-DD total score, Day 14/EOT, mean: 1.08
  ANMS GCSI-DD total score, change from baseline to Day 14/EOT: −1.33
  ANMS GCSI-DD total score, percent change from baseline to Day 14/EOT: −55.24%
[1]; all deudomperidone treatment groups, placebo also decreased
  ANMS GCSI-DD total score and all subscale scores at Day 14/End of Treatment: decreased from baseline
prolactin; 5 mg BID
  Prolactin, Day 3, mean (SD): 396.7 (185.83) mIU/L
  Prolactin, Day 7, mean (SD): 622.9 (317.61) mIU/L
  Prolactin, Day 10, mean (SD): 449.7 (147.64) mIU/L
  Prolactin, Day 14, mean (SD): 578.0 (205.82) mIU/L
  Prolactin, change from baseline to Day 3, mean (SD): 143.4 (124.58) mIU/L
  Prolactin, change from baseline to Day 7, mean (SD): 369.7 (263.19) mIU/L
  Prolactin, change from baseline to Day 10, mean (SD): 196.4 (99.96) mIU/L
  Prolactin, change from baseline to Day 14, mean (SD): 324.8 (187.12) mIU/L
prolactin; 10 mg BID
  Prolactin, Day 3, mean: 570.2 mIU/L
  Prolactin, Day 7, mean: 640.0 mIU/L
  Prolactin, Day 10, mean: 734.9 mIU/L
  Prolactin, Day 14, mean: 774.2 mIU/L
  Prolactin, change from baseline to Day 3: 351.5 mIU/L
  Prolactin, change from baseline to Day 7: 421.2 mIU/L
  Prolactin, change from baseline to Day 10: 512.1 mIU/L
  Prolactin, change from baseline to Day 14: 555.5 mIU/L
prolactin; 10 mg BID, n = 2
  Prolactin, change from baseline to follow-up/early termination: −32.5 mIU/L
  Prolactin, follow-up/early termination, mean: 195.0 mIU/L
prolactin; 20 mg QD
  Prolactin, Day 3, mean: 830.5 mIU/L
  Prolactin, Day 7, mean: 1219.5 mIU/L
  Prolactin, Day 10, mean: 1264.1 mIU/L
  Prolactin, Day 14, mean: 1251.9 mIU/L
  Prolactin, change from baseline to Day 3: 522.1 mIU/L
  Prolactin, change from baseline to Day 7: 911.1 mIU/L
  Prolactin, change from baseline to Day 10: 955.8 mIU/L
  Prolactin, change from baseline to Day 14: 943.6 mIU/L
[2]; 10 mg BID, Day 14 at 4 hours post-dose
  subjects with ≥6% change from baseline in QTcF: 1 (3.6%) subjects (%)
[2]; 10 mg BID, Day 14 at 6 hours post-dose
  subjects with ≥6% change from baseline in QTcF: 1 (4.3%) subjects (%)
[2]; 20 mg QD, Day 14 at 4 hours post-dose
  subjects with ≥6% change from baseline in QTcF: 3 (20.0%) subjects (%)
[2]; 20 mg QD, Day 14 at 6 hours post-dose
  subjects with ≥6% change from baseline in QTcF: 2 (16.7%) subjects (%)
[2]; 1 subject, alert at 4 and 6 hours post-dose on Day 14
  QTcF of subject meeting alert criteria (never increased above): ≤ 426 ms
[2]; Day 7, baseline QTcF average 430 msec
  QTcF of second subject meeting alert criteria: 474 ms
[2]; all dose groups
  prolongations of the QTcF interval: no clinically meaningful prolongations
[3]; 30 mg treatment group, at 5 time points
  bradycardic outliers: 1
[3]; 0.5 H Post Dose, 30 mg CIN-102 (Treatment A)
  ΔΔHR LS Mean: −0.5 bpm
[3]; 0.5 H Post Dose, 100 mg CIN-102 (Treatment B)
  ΔΔHR LS Mean: −0.5 bpm
[3]; 1 H Post Dose, 30 mg CIN-102 (Treatment A)
  ΔΔHR LS Mean: −1.4 bpm
[3]; 1 H Post Dose, 100 mg CIN-102 (Treatment B)
  ΔΔHR LS Mean: −1.1 bpm
[3]; 1.5 H Post Dose, 30 mg CIN-102 (Treatment A)
  ΔΔHR LS Mean: −1.0 bpm
[3]; 1.5 H Post Dose, 100 mg CIN-102 (Treatment B)
  ΔΔHR LS Mean: −0.7 bpm
[3]; 2 H Post Dose, 30 mg CIN-102 (Treatment A)
  ΔΔHR LS Mean: 0.4 bpm
[3]; 2 H Post Dose, 100 mg CIN-102 (Treatment B)
  ΔΔHR LS Mean: 0.2 bpm
[3]; 2.5 H Post Dose, 30 mg CIN-102 (Treatment A)
  ΔΔHR LS Mean: −0.7 bpm
[3]; 2.5 H Post Dose, 100 mg CIN-102 (Treatment B)
  ΔΔHR LS Mean: −0.8 bpm
[3]; 3 H Post Dose, 30 mg CIN-102 (Treatment A)
  ΔΔHR LS Mean: −1.4 bpm
[3]; 3 H Post Dose, 100 mg CIN-102 (Treatment B)
  ΔΔHR LS Mean: −1.0 bpm
[3]; 4 H Post Dose, 30 mg CIN-102 (Treatment A)
  ΔΔHR LS Mean: 0.0 bpm
[3]; 4 H Post Dose, 100 mg CIN-102 (Treatment B)
  ΔΔHR LS Mean: 0.1 bpm
[3]; 5 H Post Dose, 30 mg CIN-102 (Treatment A)
  ΔΔHR LS Mean: −0.3 bpm
[3]; 5 H Post Dose, 100 mg CIN-102 (Treatment B)
  ΔΔHR LS Mean: −0.8 bpm
[3]; 6 H Post Dose, 30 mg CIN-102 (Treatment A)
  ΔΔHR LS Mean: −0.2 bpm
[3]; 6 H Post Dose, 100 mg CIN-102 (Treatment B)
  ΔΔHR LS Mean: −0.5 bpm
[3]; 8 H Post Dose, 30 mg CIN-102 (Treatment A)
  ΔΔHR LS Mean: 0.7 bpm
[3]; 8 H Post Dose, 100 mg CIN-102 (Treatment B)
  ΔΔHR LS Mean: −0.9 bpm
[3]; 12 H Post Dose, 30 mg CIN-102 (Treatment A)
  ΔΔHR LS Mean: −0.5 bpm
[3]; 12 H Post Dose, 100 mg CIN-102 (Treatment B)
  ΔΔHR LS Mean: −0.8 bpm
[3]; 24 H Post Dose, 30 mg CIN-102 (Treatment A)
  ΔΔHR LS Mean: 1.1 bpm
[3]; 24 H Post Dose, 100 mg CIN-102 (Treatment B)
  ΔΔHR LS Mean: 0.1 bpm
[3]; 36 H Post Dose, 30 mg CIN-102 (Treatment A)
  ΔΔHR LS Mean: 0.5 bpm
[3]; 36 H Post Dose, 100 mg CIN-102 (Treatment B)
  ΔΔHR LS Mean: −0.4 bpm
[3]; 48 H Post Dose, 30 mg CIN-102 (Treatment A)
  ΔΔHR LS Mean: 0.9 bpm
[3]; 48 H Post Dose, 100 mg CIN-102 (Treatment B)
  ΔΔHR LS Mean: 0.5 bpm
[3]; across treatment periods
  tachycardic outliers: no tachycardic outliers
[3]; both dose levels, all post-dose time points
  mean ΔΔHR, by-time point analysis: below 10 bpm
[4]; 30 mg single dose
  time of highest mean plasma concentration of deuterated domperidone: 1.5 hours post-dose
[4]; 100 mg single dose
  time of highest mean plasma concentration of deuterated domperidone: 2 hours post-dose
Healthy subjects
  PR or QRS outliers: no PR or QRS outliers
  treatment-emergent U waves: no treatment-emergent U waves
[5]
  Cmax lower than the same oral dose domperidone: approximately 50%
